Measured values published in patent US9266832B2, “Compounds for the treatment of neurodegenerative diseases” (Katholieke Universiteit Levun, priority 2010, dated 2016).

Test system: M17-TAU P301L cells
Experiment: Tau-induced toxicity experiment: LDH leakage of retinoic acid incubated M17-TAU P301L cells
Assay type: cell-based
Details: Homo sapiens, Neuroblastoma cell, 168 h; reduction of LDH activity of retinoic acid incubated M17-TAU P301L neuroblastoma cells, 7 days
Description: A TAU expression plasmid was constructed by sub-cloning the cDNA of human TAU-P301L (encoding for TAU with proline 301 substituted by a leucine residue) into mammalian expression vector pcDNA3.1 resulting in plasmid pcDNA3.1-TAU P301L. Plasmids pcDNA3.1 and pcDNA3.1-TAU P301L were transfected to human neuroblastoma cells ([…]; ATCC No. CRL-2267) and independent clonal lines with the plasmids stably integrated into the genome were selected. […] Expression of the TAU P301L genes in the cell lines was confirmed by Western analysis.
In degenerated or dead cells lactate dehydrogenase (LDH) is leaked out of the cells into the extracellular environment due to a loss of plasma-membrane integrity. This principle was used to determine cytotoxicity by quantifying the level of leaked LDH into the growth medium.
The detailed method for determining TAU cytotoxicity was as follows: From appropriate precultures of M17-3.1 and M17-TAU(P301L) cells were seeded at 2500 cells/cm2 in Optimem Reduced Serum without phenol red (Gibco, Cat. 31985-047) supplemented with 1% fetal calf serum, 1 mM sodium pyruvate, 1× non-essential amino acids, 500 μg/ml G418 0.5× antibiotic/antimycotic. After 3 h of incubation at 37° C./5% CO2 1 volume of Optimem Reduced Serum (same as described above; except without fetal calf serum) supplemented with 2.5 μM retinoic acid (RA) was added. The cells were further incubated for 7 days. Subsequently, LDH activity was determined using Promega Cytotox 96 Non-Radioactive cytotoxicity assay, (Cat. G1780) according the supplier's instructions.
The M17-TAU P301L cell line made it possible to assess the ability of novel compounds to counteract TAU cytotoxicity. […] These measurements were used to calculate EC50 values of table 2.

| SMILES | EC50 |
| --- | --- |
| O=C(NCCc1c[nH]c2ccc(Cl)cc12)c1cccc(Cc2cccc(F)c2)n1 [Cpd117, N-(2-(5-chloro-1H-indol-3-yl)ethyl)-6-(3-fluorobenzyl)picolinamide] | 109 nM |
| O=C(NCCc1c[nH]c2ccc(Cl)cc12)c1cccc(Cc2ccoc2)c1 [Cpd083, N-(2-(5-chloro-1H-indol-3-yl)ethyl)-3-(furan-3-ylmethyl)benzamide] | 56 nM |
| O=C(NCCc1c[nH]c2ccc(C(F)(F)F)cc12)c1ccc(Cc2cccc(F)c2)cc1 [Cpd108, 4-(3-fluorobenzyl)-N-(2-(5-(trifluoromethyl)-1H-indol-3-yl)ethyl)benzamide] | 320 nM |
| Cc1cccc(Cc2ccc(C(=O)NCCc3c[nH]c4ccc(Cl)cc34)cc2)c1 [Cpd036, N-(2-(5-chloro-1H-indol-3-yl)ethyl)-4-(3-methylbenzyl)benzamide] | 40 nM |
| N#Cc1ccc(Cc2cccc(C(=O)NCCc3c[nH]c4ccc(Cl)cc34)c2)cc1 [Cpd037, N-(2-(5-chloro-1H-indol-3-yl)ethyl)-3-(4-cyanobenzyl)benzamide] | 32 nM |
| COc1cccc(Cc2cccc(C(=O)NCCc3c[nH]c4ccc(Cl)cc34)c2)c1 [Cpd058, N-(2-(5-chloro-1H-indol-3-yl)ethyl)-3-(3-methoxybenzyl)benzamide] | 125 nM |
| O=C(NCCc1c[nH]c2ccc(Cl)cc12)c1cccc(Cn2cccn2)c1 [Cpd006, 3-((1H-pyrazol-1-yl)methyl)-N-(2-(5-chloro-1H-indol-3-yl)ethyl)benzamide] | 256 nM |
| O=C(NCCc1c[nH]c2ccc(Cl)cc12)c1ccc(Cc2ccoc2)cc1 [Cpd081, N-(2-(5-chloro-1H-indol-3-yl)ethyl)-4-(furan-3-ylmethyl)benzamide] | 23 nM |
| O=C(NCCc1c[nH]c2ccc(Cl)cc12)c1ccc(Cc2ccsc2)cc1 [Cpd080, N-(2-(5-chloro-1H-indol-3-yl)ethyl)-4-(thiophen-3-ylmethyl)benzamide] | 18 nM |
| O=C(NCCc1c[nH]c2ccc(Cl)cc12)c1ccc(Cc2cccc(F)c2)cc1F [Cpd099, N-(2-(5-chloro-1H-indol-3-yl)ethyl)-2-fluoro-4-(3-fluorobenzyl)benzamide] | 27 nM |
| O=C(NCCc1c[nH]c2ccc(Cl)cc12)c1cccc(Cc2ccc(F)cc2)c1 [Cpd052, N-(2-(5-chloro-1H-indol-3-yl)ethyl)-3-(4-fluorobenzyl)benzamide] | 20 nM |
| O=C(NCCc1c[nH]c2ccc(Cl)cc12)c1cccc(Cc2ccc(Cl)cc2)c1 [Cpd050, N-(2-(5-chloro-1H-indol-3-yl)ethyl)-3-(4-chlorobenzyl)benzamide] | 50 nM |
| O=C(NCCc1c[nH]c2ccc(Cl)cc12)c1ccc(Cc2cccc(F)c2)c(F)c1 [Cpd100, N-(2-(5-chloro-1H-indol-3-yl)ethyl)-3-fluoro-4-(3-fluorobenzyl)benzamide] | 44 nM |
| O=C(NCCc1c[nH]c2ccc(Cl)cc12)c1ccccc1Cc1ccccc1 [Cpd009, 2-benzyl-N-(2-(5-chloro-1H-indol-3-yl)ethyl)benzamide] | 240 nM |
| O=C(NCCc1c[nH]c2ccc(Cl)cc12)c1ccc(Cc2cc(F)ccc2F)cc1 [Cpd102, N-(2-(5-chloro-1H-indol-3-yl)ethyl)-4-(2,5-difluorobenzyl)benzamide] | 49 nM |
| COc1ccccc1Cc1ccc(C(=O)NCCc2c[nH]c3ccc(Cl)cc23)cc1 [Cpd029, N-(2-(5-chloro-1H-indol-3-yl)ethyl)-4-(2-methoxybenzyl)benzamide] | 84 nM |
| O=C(NCCc1c[nH]c2ccc(Cl)cc12)c1ccc(Nc2cccc(F)c2)cc1 [Cpd106, N-(2-(5-chloro-1H-indol-3-yl)ethyl)-4-(3-fluorophenylamino)benzamide] | 82 nM |
| COc1cccc(Cc2ccc(C(=O)NCCc3c[nH]c4ccc(Cl)cc34)cc2)c1F [Cpd068, N-(2-(5-chloro-1H-indol-3-yl)ethyl)-4-(2-fluoro-3-methoxybenzyl)benzamide] | 148 nM |
| Cc1ccc(Cc2cccc(C(=O)NCCc3c[nH]c4ccc(Cl)cc34)c2)cc1 [Cpd034, N-(2-(5-chloro-1H-indol-3-yl)ethyl)-3-(4-methylbenzyl)benzamide] | 62 nM |
| O=C(NCCc1c[nH]c2ccc(Cl)cc12)c1ccc(Cc2cccc(C(F)(F)F)c2)cc1 [Cpd042, N-(2-(5-chloro-1H-indol-3-yl)ethyl)-4-(3-(trifluoromethyl)benzyl)benzamide] | 31 nM |
| O=C(NCCc1c[nH]c2ccc(Cl)cc12)c1cccc(Oc2ccccc2)c1 [Cpd095, N-(2-(5-chloro-1H-indol-3-yl)ethyl)-3-phenoxybenzamide] | 241 nM |

| SMILES | EC50 |
| --- | --- |
| O=C(NCCc1c[nH]c2ccc(Cl)cc12)c1cccc(CNCc2cccs2)c1 [Cpd022, N-(2-(5-chloro-1H-indol-3-yl)ethyl)-3-((thiophen-2-ylmethylamino)methyl)benzamide] | 159 nM |
| CN(c1ccccc1)c1cccc(C(=O)NCCc2c[nH]c3ccc(Cl)cc23)c1 [Cpd097, N-(2-(5-chloro-1H-indol-3-yl)ethyl)-3-(methyl(phenyl)amino)benzamide] | 270 nM |
| O=C(NCCc1c[nH]c2ccc(Cl)cc12)c1ccc(Cn2ccnc2)cc1 [Cpd012, 4-((1H-imidazol-1-yl)methyl)-N-(2-(5-chloro-1H-indol-3-yl)ethyl)benzamide] | 486 nM |
| Cc1cccc(C)c1Cc1ccc(C(=O)NCCc2c[nH]c3ccc(Cl)cc23)cc1 [Cpd062, N-(2-(5-chloro-1H-indol-3-yl)ethyl)-4-(2,6-dimethylbenzyl)benzamide] | 398 nM |
| O=C(NCCc1c[nH]c2ccc(Cl)cc12)c1ccc(Oc2ccccc2)cc1 [Cpd093, N-(2-(5-chloro-1H-indol-3-yl)ethyl)-4-phenoxybenzamide] | 293 nM |
| O=C(NCCc1c[nH]c2ccc(Cl)cc12)c1ccc(Cc2cccs2)cc1 [Cpd079, N-(2-(5-chloro-1H-indol-3-yl)ethyl)-4-(thiophen-2-ylmethyl)benzamide] | 81 nM |
| O=C(NCCc1c[nH]c2ccc(Cl)cc12)c1cccc(Cc2ccccc2F)c1 [Cpd054, N-(2-(5-chloro-1H-indol-3-yl)ethyl)-3-(2-fluorobenzyl)benzamide] | 42 nM |
| O=C(NCCc1c[nH]c2ccc(Cl)cc12)c1cccc(Cc2ccccc2)c1 [Cpd010, 3-benzyl-N-(2-(5-chloro-1H-indol-3-yl)ethyl)benzamide] | 78 nM |
| O=C(NCCc1c[nH]c2ccc(Cl)cc12)c1cccc(Cc2cccs2)c1 [Cpd075, N-(2-(5-chloro-1H-indol-3-yl)ethyl)-3-(thiophen-2-ylmethyl)benzamide] | 30 nM |
| O=C(NCCc1c[nH]c2ccc(Cl)cc12)c1ccc(Cc2ccncc2)cc1 [Cpd086, N-(2-(5-chloro-1H-indol-3-yl)ethyl)-4-(pyridin-4-ylmethyl)benzamide] | 151 nM |
| Cc1cccc(Oc2cccc(C(=O)NCCc3c[nH]c4ccc(Cl)cc34)c2)c1 [Cpd090, N-(2-(5-chloro-1H-indol-3-yl)ethyl)-3-(m-tolyloxy)benzamide] | 91 nM |
| N#Cc1cccc(Cc2ccc(C(=O)NCCc3c[nH]c4ccc(Cl)cc34)cc2)c1 [Cpd032, N-(2-(5-chloro-1H-indol-3-yl)ethyl)-4-(3-cyanobenzyl)benzamide] | 14 nM |
| COc1ccccc1Cc1cccc(C(=O)NCCc2c[nH]c3ccc(Cl)cc23)c1 [Cpd030, N-(2-(5-chloro-1H-indol-3-yl)ethyl)-3-(2-methoxybenzyl)benzamide] | 96 nM |
| N#Cc1cccc(Nc2cccc(C(=O)NCCc3c[nH]c4ccc(Cl)cc34)c2)c1 [Cpd064, N-(2-(5-chloro-1H-indol-3-yl)ethyl)-3-(3-cyanophenylamino)benzamide] | 122 nM |
| O=C(NCCc1c[nH]c2ccc(Cl)cc12)c1ccc(Cc2cccc(F)c2F)cc1 [Cpd103, N-(2-(5-chloro-1H-indol-3-yl)ethyl)-4-(2,3-difluorobenzyl)benzamide] | 139 nM |
| O=C(NCCc1c[nH]c2ccc(Cl)cc12)c1ccc(CNCc2ccccc2)cc1 [Cpd019, 4-((benzylamino)methyl)-N-(2-(5-chloro-1H-indol-3-yl)ethyl)benzamide] | 103 nM |
| O=C(NCCc1c[nH]c2ccc(Cl)cc12)c1ccc(Cc2cc(F)cc(F)c2)cc1 [Cpd067, N-(2-(5-chloro-1H-indol-3-yl)ethyl)-4-(3,5-difluorobenzyl)benzamide] | 111 nM |
| N#Cc1ccc2[nH]cc(CCNC(=O)c3ccc(Cc4cccc(F)c4)cc3)c2c1 [Cpd115, N-(2-(5-cyano-1H-indol-3-yl)ethyl)-4-(3-fluorobenzyl)benzamide] | 75 nM |
| Cn1cc(CCNC(=O)c2ccc(Cc3cccc(F)c3)cc2)c2cc(Cl)ccc21 [Cpd091, N-(2-(5-chloro-1-methyl-1H-indol-3-yl)ethyl)-4-(3-fluorobenzyl)benzamide] | 581 nM |
| O=C(NCCc1c[nH]c2ccc(Cl)cc12)c1cccc(Cc2ccsc2)c1 [Cpd076, N-(2-(5-chloro-1H-indol-3-yl)ethyl)-3-(thiophen-3-ylmethyl)benzamide] | 29 nM |
| O=C(NCCc1c[nH]c2ccc(F)cc12)c1cccc(Cc2cccc(F)c2)c1 [Cpd082, N-(2-(5-fluoro-1H-indol-3-yl)ethyl)-3-(3-fluorobenzyl)benzamide] | 112 nM |
